Here are results for 2 molecules from patent US11813239B2, “Compositions and methods for improving cardiac structure and/or function” (Wisconsin Alumni Research Foundation, priority 2020, dated 2023).

Each structure is given as a SMILES string.

Assay [1] has as its system cardiomyocytes. Nature of the assay: Immunostaining (pH3, Aurora B), WGA and trichrome staining after MI in P7 mice. The note with it: vs controls.
Source text: We then analyzed the hearts following injury to determine whether malonate results in prolongation of the neonatal regenerative window (FIG. 5A). To examine whether malonate stimulates cardiomyocyte proliferation, we performed MI in 7-day-old mice and analyzed their hearts at 7 days post-MI by immunostaining for markers of proliferation.
(§1) Neonatal mice at postnatal day 1 (P1) or day 7 (P7) were used for myocardial infarction (MI) surgery. Neonatal mice were subjected to MI surgeries as previously described. Briefly, neonates were anesthetized by hypothermia on ice. Lateral thoracotomy at the fourth intercostal space was performed by blunt dissection of the intercostal muscles after skin incision. A C-1 tapered needle attached to a 6-0 prolene suture (Ethicon Inc., Bridgewater, N.J.) was passed through the mid-ventricle below the left anterior descending coronary artery (LAD) and tied off to induce MI. The prolene suture was used to suture the ribs together and seal the chest wall incisions, and the skin was closed using adhesive glue (3M). The mice then were warmed on a heating pad until recovery. Sham-operated mice underwent the same procedure including hypothermic anesthesia, but not LAD ligation.
(§2) Neonatal mice were weighed and injected daily with either saline, 100 mg/kg dimethyl succinate (Sigma), 100 mg/kg dimethyl malonate (Sigma), or 100 μg/kg Atpenin A5 (Enzo Life Sciences). Dimethyl succinate and dimethyl malonate were dissolved in saline. Stock solution of Atpenin A5 at 0.1 mg/ml was initially prepared by dissolving in DMSO (Sigma) and then further diluted with saline before injection. Saline was used as a vehicle control for all experiments.
Hearts were harvested and fixed in 4% paraformaldehyde (PFA) in PBS solution overnight at 4° C., processed for paraffin embedding, and sectioned in intervals. Masson's trichrome staining was performed according to the manufacture's protocol (Newcomer Supply, Middleton, WI). Scar size measurements were quantified from at least 3 sections of the heart from ligature to apex. ImageJ was used to quantify the fibrotic scar, and the average scar area for each heart was plotted.
We injected dimethyl malonate (100 mg/kg, daily) in neonatal mice directly after birth for 2 weeks with an MI performed once the mice reached P7.
In assay [2] the test system is postnatal (P7) mouse heart following myocardial infarction. Briefly: Echocardiography after myocardial infarction in P7 juvenile mice. The note with it: for % EF (Ejection Fraction) / % FS (Fractional Shortening) / LV Mass (Left Ventricular Mass, Anatomical Weight) / LV Vol; d (Left Ventricular Volume; diastole) / LV Vol; s (Left Ventricular Volume; systole) / LVAWD (Left Ventricle Anterior Wall Thickness Diastole) / LVAWS (Left Ventricle Anterior Wall Thickness Systole) / LVIDD (Left Ventricle Internal Diameter Diastole) / LVIDS (Left Ventricle Internal Diameter Systole) / LVPWD (Left Ventricle Posterior Wall Thickness Diastole) / LVPWS (Left Ventricle Posterior Wall Thickness Systole): Atpenin A5 100 μg/kg daily, mean ± SE.
Procedure: as §1, §2
Transthoracic echocardiography was performed by using a Visual Sonics 770 ultrasonograph with a 25-MHz transducer (Visual Sonics, Toronto) as described previously^19. Mice were lightly anesthetized with 1% isoflurane and maintained on a heated platform. Two-dimensionally guided M-mode images from a parasternal long axis (PLAX) of the left ventricle (LV) were acquired at the tip of the papillary muscles. Wall thickness and chamber diameters were measured in both diastole and systole. Fractional shortening was calculated as (LVDd−LVDs)/LVDd×100, where LVDd is LV diameter in diastole and LVDs is LV diameter in systole. Ejection fraction was calculated as [(7.0/(2.4+LVDd)(LVDd)^3−(7.0/(2.4+LVDs)(LVDs)^3/(7.0/(2.4+LVDd)(LVDd)^3×100 and LV mass was calculated by using the formula [1.05×((Posterior Walldiastole+Anterior Walldiastole+LVDd)^3−(LVDd)^3)]. All parameters were measured over at least three consecutive cycles.
We injected dimethyl malonate (100 mg/kg, daily) in neonatal mice directly after birth for 2 weeks with an MI performed once the mice reached P7. We then analyzed the hearts following injury to determine whether malonate results in prolongation of the neonatal regenerative window (FIG. 10A).

Assay [3] has as its target SDH (Homo sapiens, UniProt O14521+P21912+Q99643). The settings on record: literature reference 21 (Miyadera et al. 2003); cited from earlier work.
Where [4] appears, read: MI at P7, Atpenin A5 100 μg/kg daily, 7 days post-MI.
[5] abbreviates: MI at P7, Atpenin A5 100 μg/kg daily, 21 days post-MI.
The mark [6] stands for this setting: MI at P7 (n = 8), echo 21 days post-MI (P7D21).
Setting [7] is: sham at P7 (SH, n = 6), echo at day 21 (P7D21).

SDH, sequence (P31040 43-664 partner): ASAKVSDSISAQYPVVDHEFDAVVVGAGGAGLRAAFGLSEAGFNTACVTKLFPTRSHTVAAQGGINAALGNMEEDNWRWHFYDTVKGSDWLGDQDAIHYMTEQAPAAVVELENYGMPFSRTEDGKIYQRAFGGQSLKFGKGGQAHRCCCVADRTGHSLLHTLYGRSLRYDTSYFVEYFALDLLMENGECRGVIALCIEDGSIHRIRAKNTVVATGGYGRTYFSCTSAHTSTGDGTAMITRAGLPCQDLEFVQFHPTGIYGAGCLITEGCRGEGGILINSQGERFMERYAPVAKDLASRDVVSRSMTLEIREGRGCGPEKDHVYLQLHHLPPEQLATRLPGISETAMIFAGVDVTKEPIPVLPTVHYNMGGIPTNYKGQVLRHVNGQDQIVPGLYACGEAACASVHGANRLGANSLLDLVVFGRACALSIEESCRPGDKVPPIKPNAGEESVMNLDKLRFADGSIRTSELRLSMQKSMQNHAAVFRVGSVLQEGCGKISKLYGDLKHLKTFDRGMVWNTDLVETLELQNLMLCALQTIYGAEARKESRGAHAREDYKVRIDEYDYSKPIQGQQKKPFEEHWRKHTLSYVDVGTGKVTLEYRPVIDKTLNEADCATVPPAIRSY
SDH, sequence (P21912 29-280): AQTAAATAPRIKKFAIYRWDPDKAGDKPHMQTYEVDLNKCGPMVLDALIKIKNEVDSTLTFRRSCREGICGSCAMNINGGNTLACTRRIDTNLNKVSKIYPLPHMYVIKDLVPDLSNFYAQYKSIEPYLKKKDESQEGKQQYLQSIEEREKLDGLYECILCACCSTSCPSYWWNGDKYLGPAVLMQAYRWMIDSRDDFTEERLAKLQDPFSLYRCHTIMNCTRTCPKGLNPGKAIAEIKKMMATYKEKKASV
SDH, sequence (Q99643 30-169): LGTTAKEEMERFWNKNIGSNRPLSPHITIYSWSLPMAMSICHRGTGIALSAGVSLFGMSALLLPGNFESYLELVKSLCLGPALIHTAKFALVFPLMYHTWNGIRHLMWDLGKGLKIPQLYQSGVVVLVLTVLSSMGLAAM
SDH, sequence (O14521 57-159): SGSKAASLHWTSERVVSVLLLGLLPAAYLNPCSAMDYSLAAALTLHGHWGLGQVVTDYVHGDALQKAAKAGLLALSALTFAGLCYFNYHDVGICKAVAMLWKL

Turning to `COc1[nH]c(=O)c(C(=O)[C@@H](C)C[C@H](C)[C@@H](Cl)CCl)c(O)c1OC` [Atpenin A5], in assay [1] (setting [4]), the “percentage of cardiomyocytes undergoing cytokinesis (Aurora B staining)” value is reported as “significant increase” and the “percentage of cardiomyocytes undergoing mitosis (pH3 staining)” value is on record as “significant increase”. For the same molecule, in assay [1] (setting [5]), the “myocardial regeneration (trichrome staining)” value is “myocardial thickness at the infarct zone” and the “scar size (trichrome staining, ImageJ)” value is recorded as “significant reduction in scar size”. Moreover, in assay [2] (setting [6]), the “% EF (Ejection Fraction)” value came to 49.676 ± 2.072%; the “% FS (Fractional Shortening)” value amounted to 24.642 ± 1.227%; the “LV Mass (Left Ventricular Mass, Anatomical Weight)” value was determined as 54.203 ± 7.978 mg; the “LV Vol; d (Left Ventricular Volume; diastole)” value was 50.033 ± 6.416 µL. For the same molecule, in assay [2] (setting [6]), the “LV Vol; s (Left Ventricular Volume; systole)” value stood at 25.290 ± 3.427 µL, the “LVAWD (Left Ventricle Anterior Wall Thickness Diastole)” value worked out at 0.525 ± 0.023 mm, the “LVAWS (Left Ventricle Anterior Wall Thickness Systole)” value is 0.644 ± 0.032 mm and the “LVIDD (Left Ventricle Internal Diameter Diastole)” value was 3.438 ± 0.167 mm. For the same molecule, in assay [2] (setting [6]), the “LVIDS (Left Ventricle Internal Diameter Systole)” value was determined as 2.592 ± 0.132 mm, the “LVPWD (Left Ventricle Posterior Wall Thickness Diastole)” value was 0.521 ± 0.025 mm and the “LVPWS (Left Ventricle Posterior Wall Thickness Systole)” value is recorded as 0.643 ± 0.027 mm. The “cardiac function by echocardiography” value in assay [2] (MI at P7, Atpenin A5 100 μg/kg daily, 3 weeks post-MI) is “restoration of cardiac function”. Besides, in assay [2] (setting [7]), the “% EF (Ejection Fraction)” value is given as 51.652 ± 3.984%; the “% FS (Fractional Shortening)” value is recorded as 25.773 ± 2.586%; the “LV Mass (Left Ventricular Mass, Anatomical Weight)” value stood at 42.822 ± 4.210 mg; the “LV Vol; d (Left Ventricular Volume; diastole)” value is 39.614 ± 7.039 µL. In assay [2] (setting [7]), the “LV Vol; s (Left Ventricular Volume; systole)” value is 19.979 ± 4.374 µL, the “LVAWD (Left Ventricle Anterior Wall Thickness Diastole)” value was 0.493 ± 0.042 mm, the “LVAWS (Left Ventricle Anterior Wall Thickness Systole)” value is 0.615 ± 0.041 mm and the “LVIDD (Left Ventricle Internal Diameter Diastole)” value was 3.100 ± 0.229 mm. For the same molecule, in assay [2] (setting [7]), the “LVIDS (Left Ventricle Internal Diameter Systole)” value turned out to be 2.319 ± 0.221 mm, the “LVPWD (Left Ventricle Posterior Wall Thickness Diastole)” value amounted to 0.536 ± 0.027 mm and the “LVPWS (Left Ventricle Posterior Wall Thickness Systole)” value is recorded as 0.648 ± 0.030 mm. For the same molecule, the “inhibition of SDH” value in assay [3] is “potent inhibitor of SDH”.
With `COC1=C(OC)C(=O)C(CCCCCCCCCC[P+](c2ccccc2)(c2ccccc2)c2ccccc2)=C(C)C1=O` [MitoQ], the “cardiomyocyte mitosis (pH3 immunostaining)” value in assay [1] (MI at P7, MitoQ 10 mg/kg intraperitoneally daily for 2 weeks after birth, 7 days post-MI) was “significant increase in cardiomyocyte mitosis”. Moreover, in assay [2] (MI at P7, MitoQ 10 mg/kg intraperitoneally daily for 2 weeks after birth, vs controls), the “cardiac function by echocardiography (EF and FS)” value is “no improvement in cardiac function”.
